# Measurements from patent publication US20040006077A1, “Thiazine and oxazine derivatives as MMP-13 inhibitors” (priority 2002, published 2004).
# Assays:
# Assay type in all cases: biochemical
# [1] = biological target: T1, catalytic domain of human MMP-13 (Homo sapiens, UniProt P45452); test: Inhibition of proteolysis of thioester peptide substrate by MMP-13; conditions: peptide substrate Ac-Pro-Leu-Gly-thioester-Leu-Leu-Gly-OEt 100 μM, pH 7.0, absorbance at 405 nm
# T1 construct: 2.5 nM of the catalytic domain of human MMP-13
# Description: (§1) The inhibitory activity of the compounds of formula (I) according to the invention with respect to matrix metalloprotease-13 is evaluated by testing the ability of the compounds of the invention to inhibit the proteolysis of a peptide substrate with MMP-13.
# (§2) The peptide substrate used in the test is the following peptide: Ac-Pro-Leu-Gly-thioester-Leu-Leu-Gly-OEt.
# The inhibitory activity of a compound of formula (I) according to the invention is expressed as the IC50 value, which is the concentration of inhibitor for which an inhibition of 50% of the activity of the matrix metalloprotease under consideration is observed.
# To carry out this test, a reaction medium of 100 μt volume is prepared, containing: 50 mM of HEPES buffer, 10 mM of CaCl2 and 1 mM of 5,5′-dithiobis-(2-nitrobenzoic acid) (DTNB), and 100 μM of substrate, the pH being adjusted to 7.0.
# Increasing concentrations of the inhibitory compound present in a 2.0% DMSO solution and 2.5 nM of the catalytic domain of human MMP-13 are added to the test samples.
# (§3) The concentrations of inhibitors present in the test samples range from 100 μM to 0.5 nM. The measurement of the proteolysis of the substrate peptide is monitored by measuring the absorbance at 405 nm using a spectrophotometer for reading microplates, at the laboratory temperature, the measurements being carried out continuously for 10 to 15 minutes.
# The IC50 values are calculated from a curve in which the percentage of the catalytic activity relative to the control is represented on the X-axis and the concentration of inhibitor is represented on the Y-axis.
# [2] = biological target: T2, MMP-1 (Homo sapiens, UniProt P03956); test: MMP-13 test adapted to MMP-1
# T2 sequence (P03956 100-469): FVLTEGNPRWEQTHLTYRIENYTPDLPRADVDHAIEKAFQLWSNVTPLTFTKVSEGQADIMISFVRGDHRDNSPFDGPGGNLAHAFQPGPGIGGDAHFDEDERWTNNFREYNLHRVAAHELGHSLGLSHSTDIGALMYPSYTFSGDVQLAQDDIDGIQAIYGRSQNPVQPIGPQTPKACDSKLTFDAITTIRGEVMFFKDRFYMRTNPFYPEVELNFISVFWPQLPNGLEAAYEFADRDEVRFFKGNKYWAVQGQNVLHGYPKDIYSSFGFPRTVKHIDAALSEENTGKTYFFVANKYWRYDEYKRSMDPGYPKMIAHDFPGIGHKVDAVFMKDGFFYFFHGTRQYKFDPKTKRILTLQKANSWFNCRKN
# [3] = biological target: MMP-3 (Homo sapiens, UniProt P08254); test: MMP-13 test adapted to MMP-3
# Chain of MMP-3 (P08254 100-477, species assumed): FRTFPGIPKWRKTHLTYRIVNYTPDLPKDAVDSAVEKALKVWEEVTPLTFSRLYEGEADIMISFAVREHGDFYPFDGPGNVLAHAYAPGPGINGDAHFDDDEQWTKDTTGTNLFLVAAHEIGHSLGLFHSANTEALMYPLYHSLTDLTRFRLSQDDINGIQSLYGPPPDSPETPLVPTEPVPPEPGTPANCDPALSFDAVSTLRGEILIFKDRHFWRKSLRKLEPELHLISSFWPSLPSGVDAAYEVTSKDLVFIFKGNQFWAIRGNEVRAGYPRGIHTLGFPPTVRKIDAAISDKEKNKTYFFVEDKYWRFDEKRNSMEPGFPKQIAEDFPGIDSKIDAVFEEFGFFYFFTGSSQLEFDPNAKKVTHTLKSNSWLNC
# Description: as §1, §2
# (§4) The inhibitory activity of a compound of formula (I) according to the invention is expressed as the IC50 value, which is the concentration of inhibitor for which an inhibition of 50% of the activity of the matrix metalloprotease under consideration is observed. […]
# as §3
# (§5) The IC50 values are calculated from a curve in which the percentage of the catalytic activity relative to the control is represented on the X-axis and the concentration of inhibitor is represented on the Y-axis. […]
# [4] = biological target: T3, MMP-7 (Homo sapiens, UniProt P09237); test: MMP-13 test adapted to MMP-7
# T3 sequence (P09237 95-267): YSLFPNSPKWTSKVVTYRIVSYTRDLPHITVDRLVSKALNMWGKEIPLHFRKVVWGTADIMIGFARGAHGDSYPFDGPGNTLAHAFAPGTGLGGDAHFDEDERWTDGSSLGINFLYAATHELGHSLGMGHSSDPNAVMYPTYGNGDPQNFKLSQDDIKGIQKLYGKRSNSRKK
# Description: as §1, §2, §4, §3, §5
IC50 [1] [nM],IC50 [2] [µM],IC50 [3] [µM],IC50 [4] [µM],Structure (SMILES)
37,30,18,30,"COc1ccc(CNC(=O)c2ccc3sc(=O)n(Cc4ccccc4)c(=O)c3c2)cc1 [Example 1, 3-Benzyl-2,4-dioxo-3,4-dihydro-2H-benz[e][1,3]thiazine-6-carboxylic acid 4-methoxy benzylamide]"
63,,,,COc1ccc(CNC(=O)c2ccc3oc(=O)n(Cc4ccc(OC)cc4)c(=O)c3c2)cc1 [Example 2]
1.2,,,,"O=C(O)c1ccc(Cn2c(=O)sc3ccc(C#CCc4ccccc4)cc3c2=O)cc1 [Example 3, 4-[2,4-Dioxo-6-(3-phenyl-prop-1ynyl)-4H-1,3-benzothiazin-3-ylmethyl]-benzoic acid]"
